Read-outs that look alike come from different tables or passages of the source.
What was measured:
HDACs = assay: In vitro inhibition of HDACs (HDAC Inhibitor Drug Screening Kit, Biovision K340-100); type: biochemical
Experimental: The in vitro inhibitory activities of the compounds towards HDACs were tested according to the instructions in the HDAC Inhibitor Drug Screening Kit (Biovision/Catalog #K340-100).
(1) The compounds to be tested were each individually prepared as 2 mM, 200 μM and 40 μM solutions and their inhibitory activities at these concentrations were tested.

[1] = Maximum tolerance dose through intragastrical administration; type: in vivo; settings: mice, administrated intragastrically
Experimental: Forty ICR mice, half female and half male, weighing […] were divided into four groups, 10 mice in each group. After the mice were fasted for 6 h, the compound to be tested was administrated intragastrically to each group at a volume of 0.3 ml/10 g by using a sterile plastic syringe. General physical signs and the deaths of the animals were record at 1, 2 and 4 h after the administration. The animals were then observed continuously for 14 days and their weights, physical signs and deaths were observed and recorded every day. Dead animals were dissected to see if there was any visible pathological change in the animal's viscera and pathological examination was performed on suspicious tissues and organs. A part of the experimental results is as follows.

[2] = tested on: Hut78 T lymphocytic leukemia cells; assay: In vitro anti-proliferative effect, CCK-8 method, Hut78; type: cell-based; settings: Homo sapiens, HuT78; for inhibition at 10 µM / inhibition at 100 µM: read-out: Hut-78 (inhibition %)
Summary of the method: (§1)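 K562 and Hut78 cells exposed to compounds at 100 μM and 10 μM. Percent inhibition of proliferation determined by CCK-8 read-out.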

[3] = tested on: PC-3 human prostate cancer; assay: In vitro anti-proliferative effect, CCK-8 method, PC-3; type: cell-based; settings: Homo sapiens, PC-3 cell strain, CCK-8 method; for inhibition at 10 µM: compound at 10 μM; for inhibition at 100 µM: compound at 100 μM
Summary of the method: (§2)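 Cells treated with compounds at 100 μM and 10 μM. Percent inhibition of proliferation measured by CCK-8.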

[4] = tested on: PANC-1 human pancreatic cancer cells; assay: In vitro anti-proliferative effect, CCK-8 method, PANC-1; type: cell-based; settings: Homo sapiens, PANC-1
Summary of the method: as §2

[5] = tested on: Jurkat E6-1 human T-cell lymphoma; assay: In vitro anti-proliferative effect, CCK-8 method, Jurkat E6-1; type: cell-based; settings: Homo sapiens, Jurkat E6.1
Summary of the method: as §2

[6] = tested on: Colo320 human colorectal cancer cell lines; assay: In vitro anti-proliferative effect, CCK-8 method, Colo320; type: cell-based; settings: Homo sapiens, COLO 320, Colo320 cell strain, CCK-8 method; for inhibition at 10 µM: compound at 10 μM; for inhibition at 100 µM: compound at 100 μM
Summary of the method: as §2

[7] = tested on: Hep3B2.1-7 human liver cancer cells; assay: In vitro anti-proliferative effect, CCK-8 method, Hep3B; type: cell-based; settings: Homo sapiens; for inhibition at 10 µM / inhibition at 100 µM: Hep3B cell strain, CCK-8 method; for inhibition at 10 µM: compound at 10 μM; for inhibition at 100 µM: compound at 100 μM
Summary of the method: as §2

[8] = tested on: A549 human lung cancer cells; assay: In vitro anti-proliferative effect, CCK-8 method, A549; type: cell-based; settings: Homo sapiens, A549
Summary of the method: as §2

HDAC1 = HDAC1 (Homo sapiens (Human), UniProt Q13547); assay: In vitro inhibition of subtype HDAC1 (HDAC1 Inhibitor Drug Screening Kit, Biovision); type: biochemical; settings: for inhibition at 1 µM / inhibition at 10 µM: read-out: % Inhibition towards HDAC1; for inhibitory activity against HDAC1 compared with MS-275: both concentrations 10 μM and 1 μM
Sequence of HDAC1 (Q13547 whole entry): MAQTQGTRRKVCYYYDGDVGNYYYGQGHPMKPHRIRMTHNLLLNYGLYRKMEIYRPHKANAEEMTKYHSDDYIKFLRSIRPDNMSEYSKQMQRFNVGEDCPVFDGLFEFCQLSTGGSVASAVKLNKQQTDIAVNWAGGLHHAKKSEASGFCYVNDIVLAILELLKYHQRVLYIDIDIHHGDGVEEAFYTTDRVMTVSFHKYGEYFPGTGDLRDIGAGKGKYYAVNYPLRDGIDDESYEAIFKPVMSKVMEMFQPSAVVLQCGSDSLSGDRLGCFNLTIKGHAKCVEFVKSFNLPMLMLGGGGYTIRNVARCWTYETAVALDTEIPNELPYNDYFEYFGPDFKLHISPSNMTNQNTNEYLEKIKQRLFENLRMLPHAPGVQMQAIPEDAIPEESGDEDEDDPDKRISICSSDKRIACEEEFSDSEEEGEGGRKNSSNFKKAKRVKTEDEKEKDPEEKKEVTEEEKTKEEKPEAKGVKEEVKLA
Experimental: The in vitro inhibitory activities of the compounds towards the subtype HDAC1 were tested according to the instructions in the HDAC1 Inhibitor Drug Screening Kit (Biovision).
(1) The compounds to be tested were each individually prepared as 10 μM and 1 μM solutions and their inhibitory activities at these concentrations were tested.
Each dilution sample was placed in two wells and the enzyme inhibition IC50 of the compound was tested.

[9] = tested on: K562 human chronic myelogenous leukemia cells; assay: In vitro anti-proliferative effect, CCK-8 method, K562; type: cell-based; settings: Homo sapiens, K562
Summary of the method: as §1

[10] = tested on: MDA-MB-435s human breast cancer cells; assay: In vitro anti-proliferative effect, CCK-8 method, MDA-MB-435s; type: cell-based; settings: Homo sapiens, MDA-MB-435S
Summary of the method: as §2

hERG potassium channel = hERG potassium channel (Homo sapiens (Human), UniProt Q12809); assay: Effects on hERG potassium channel; type: cell-based
Sequence of hERG potassium channel (Q12809 whole entry): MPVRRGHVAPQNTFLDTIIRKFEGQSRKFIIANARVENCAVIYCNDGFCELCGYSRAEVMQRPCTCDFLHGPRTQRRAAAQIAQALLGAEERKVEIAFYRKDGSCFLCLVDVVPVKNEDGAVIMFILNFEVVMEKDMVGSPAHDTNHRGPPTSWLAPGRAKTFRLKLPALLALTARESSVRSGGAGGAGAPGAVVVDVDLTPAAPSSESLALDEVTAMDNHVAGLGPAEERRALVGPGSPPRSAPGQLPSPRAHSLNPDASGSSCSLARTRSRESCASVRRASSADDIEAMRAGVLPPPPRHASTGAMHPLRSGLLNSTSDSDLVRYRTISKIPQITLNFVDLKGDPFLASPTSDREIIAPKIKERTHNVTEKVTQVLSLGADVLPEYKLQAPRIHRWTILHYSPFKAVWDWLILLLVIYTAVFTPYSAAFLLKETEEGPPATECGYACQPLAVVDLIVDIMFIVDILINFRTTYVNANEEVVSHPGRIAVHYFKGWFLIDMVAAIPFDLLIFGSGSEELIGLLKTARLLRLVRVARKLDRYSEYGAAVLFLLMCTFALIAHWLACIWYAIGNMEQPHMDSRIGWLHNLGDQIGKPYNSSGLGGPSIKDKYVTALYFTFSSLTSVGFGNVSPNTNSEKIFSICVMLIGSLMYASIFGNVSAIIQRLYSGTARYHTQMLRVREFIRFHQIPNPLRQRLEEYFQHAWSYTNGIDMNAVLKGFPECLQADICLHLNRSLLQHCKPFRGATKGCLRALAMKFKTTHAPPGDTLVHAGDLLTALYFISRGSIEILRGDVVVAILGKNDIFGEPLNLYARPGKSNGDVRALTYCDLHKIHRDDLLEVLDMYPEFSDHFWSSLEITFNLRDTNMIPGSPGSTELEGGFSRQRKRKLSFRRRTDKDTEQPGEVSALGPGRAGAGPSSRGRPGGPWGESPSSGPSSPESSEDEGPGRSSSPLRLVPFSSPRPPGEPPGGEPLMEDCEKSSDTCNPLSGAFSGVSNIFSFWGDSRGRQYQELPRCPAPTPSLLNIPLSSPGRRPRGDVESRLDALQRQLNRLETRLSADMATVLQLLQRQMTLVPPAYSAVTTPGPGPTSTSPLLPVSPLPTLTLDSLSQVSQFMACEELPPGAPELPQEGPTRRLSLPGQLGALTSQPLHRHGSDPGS

human A549 tumors = assay: Human A549 tumors transplanted in nude mice; type: in vivo; settings: 50 mg/kg
[11] = Preliminary pharmacokinetics; settings: in vivo, rat

## COC(=O)Cc1ccc2ncnc(Nc3ccc(C(=O)Nc4ccccc4N)cc3)c2c1 [Compound V-22, N-(2-aminophenyl)-4-(6-methoxycarbonylmethylquinazoline-4-amino)benzamide]
HDACs; 40 μM
  Inhibition percentage (%) towards HDACs: 19.9%
HDACs; 200 μM
  Inhibition percentage (%) towards HDACs: 47.5%
HDACs; 2 mM
  Inhibition percentage (%) towards HDACs: 84.2%
[1]
  maximum tolerance dose: over 2000 mg/kg
[2]
  inhibition at 10 µM: 42.3%
  inhibition at 100 µM: 91.8%
[3]
  inhibition at 10 µM: 44.6%
  inhibition at 100 µM: 69%
[4]
  inhibition at 10 µM: 12.3%
  inhibition at 100 µM: 39.4%
[5]
  inhibition at 10 µM: 83.1%
  inhibition at 100 µM: 88.2%
[6]
  inhibition at 10 µM: 5.4%
  inhibition at 100 µM: 40.8%
[7]
  inhibition at 10 µM: 38.3%
  inhibition at 100 µM: 69.2%
[8]
  inhibition at 10 µM: 21.8%
  inhibition at 100 µM: 69.9%
HDAC1
  inhibition at 1 µM: 23.1%
  inhibition at 10 µM: 63%
[9]
  inhibition at 10 µM: 60.9%
  inhibition at 100 µM: 83.4%
[10]
  inhibition at 10 µM: 18%
  inhibition at 100 µM: 81.4%

## COc1cc2ncnc(Nc3ccc(C(=O)Nc4cc(-c5ccccc5)ccc4N)cc3)c2cc1OC [Compound V-24, N-[2-amino-5-(phenyl)phenyl]-4-(6,7-dimethoxyquinazoline-4-amino)benzamide]
HDACs; 40 μM
  Inhibition percentage (%) towards HDACs: 24.2%
HDACs; 200 μM
  Inhibition percentage (%) towards HDACs: 55.2%
HDACs; 2 mM
  Inhibition percentage (%) towards HDACs: 76.1%
[1]
  maximum tolerance dose: over 2000 mg/kg
[2]
  inhibition at 10 µM: 15.5%
  inhibition at 100 µM: 72.9%
[3]
  inhibition at 10 µM: 13.1%
  inhibition at 100 µM: 63.7%
[4]
  inhibition at 10 µM: 17.5%
  inhibition at 100 µM: 22.1%
[5]
  inhibition at 10 µM: 30.7%
  inhibition at 100 µM: 91.4%
[6]
  inhibition at 10 µM: -1.7%
  inhibition at 100 µM: 16.5%
[7]
  inhibition at 10 µM: 14.3%
  inhibition at 100 µM: 69.5%
[8]
  inhibition at 10 µM: 7.3%
  inhibition at 100 µM: 20.8%
HDAC1
  inhibition at 1 µM: 51%
  inhibition at 10 µM: 73.3%
  inhibitory activity against HDAC1 compared with MS-275: superior to that of MS-275
[9]
  inhibition at 10 µM: -1.7%
  inhibition at 100 µM: 75.3%
[10]
  inhibition at 10 µM: -10.8%
  inhibition at 100 µM: 24.5%

## COc1cc2ncnc(Nc3ccc(C(=O)Nc4cc(-c5ccco5)ccc4N)cc3)c2cc1OC [Compound V-25, N-[2-amino-5-(2-furyl)phenyl]-4-(6,7-dimethoxyquinazoline-4-amino)benzamide]
HDACs; 40 μM
  Inhibition percentage (%) towards HDACs: 20.5%
HDACs; 200 μM
  Inhibition percentage (%) towards HDACs: 55.2%
HDACs; 2 mM
  Inhibition percentage (%) towards HDACs: 72.8%
[1]
  maximum tolerance dose: over 5000 mg/kg
[2]
  inhibition at 10 µM: 18.1%
  inhibition at 100 µM: 60%
[3]
  inhibition at 10 µM: -9.4%
  inhibition at 100 µM: 22.1%
[4]
  inhibition at 10 µM: 20.8%
  inhibition at 100 µM: 39.5%
[5]
  inhibition at 10 µM: 12.5%
  inhibition at 100 µM: 83.3%
[6]
  inhibition at 10 µM: 7.9%
  inhibition at 100 µM: 14.1%
[7]
  inhibition at 10 µM: 11.3%
  inhibition at 100 µM: 40.6%
[8]
  inhibition at 10 µM: 2.4%
  inhibition at 100 µM: 12%
HDAC1
  inhibition at 1 µM: 24.2%
  inhibition at 10 µM: 53.8%
[9]
  inhibition at 10 µM: 34.1%
  inhibition at 100 µM: 64.8%
[10]
  inhibition at 10 µM: 30.8%
  inhibition at 100 µM: 61.2%

## Nc1ccccc1NC(=O)c1ccc(CNc2ncnc3ccccc23)cc1 [Compound V-27, N-(2-aminophenyl)-4-[(quinazoline-4-amino)methyl]benzamide]
HDACs
  IC50: 1310 nM
  inhibitory activity according to in vitro IC50 value against HDACs compared with MS-275: better inhibitory activities than MS-275
HDACs; 40 μM
  Inhibition percentage (%) towards HDACs: 73.2%
HDACs; 200 μM
  Inhibition percentage (%) towards HDACs: 82.6%
HDACs; 2 mM
  Inhibition percentage (%) towards HDACs: 91.9%
HDACs; concentrations of 2 mM, 200 μM, and 40 μM
  inhibitory activity on HDACs compared with MS-275: significantly stronger inhibitory activities than MS-275
[1]
  maximum tolerance dose: over 2000 mg/kg
[2]
  IC50: 356 nM
  inhibition at 10 µM: 69.2%
  inhibition at 100 µM: 89.3%
[3]
  inhibition at 10 µM: 43.8%
  inhibition at 100 µM: 59.9%
hERG potassium channel; human, hERG potassium current, 10 μM, read-out: Maximum inhibition percentage at 10 μM (%)
  inhibition at 10 µM: 29.9 ± 6.7%
hERG potassium channel; read-out: Half inhibition concentration for the effect on hERG potassium current, IC50
  IC50: > 10000 nM
[4]
  inhibition at 10 µM: 44.4%
  inhibition at 100 µM: 69.5%
Human A549 tumors
  antitumor effect on nude mice xenograft model A549: significantly inhibit the growth of tumor
  mortality and weight loss in nude mice: no mortality and significant weight loss
Human A549 tumors; nude mice
  tumor inhibition %, A549 (lung cancer): 61.83%
Human A549 tumors; nude mice, 8 mice in each group
  deaths, A549 model: no death
[5]
  IC50: 458 nM
  inhibition at 10 µM: 31.6%
  inhibition at 100 µM: 87.6%
[11]; iv, 2 mg/kg, i.v., read-out: Intravenous half-life (converted)
  half-life: 0.95 h
[11]; oral
  bioavailability: 28.6%
[11]; oral, read-out: Oral half-life (converted)
  half-life: 3.37 h
[6]
  inhibition at 10 µM: 60%
  inhibition at 100 µM: 82.3%
[7]; Hep3B
  IC50: 1520 nM
[7]
  inhibition at 10 µM: -12.3%
  inhibition at 100 µM: 68.3%
[8]
  IC50: 3140 nM
  inhibition at 10 µM: 82.8%
  inhibition at 100 µM: 97.7%
HDAC1
  IC50: 212 nM
  inhibition at 1 µM: 58.3%
  inhibition at 10 µM: 83%
  inhibitory activity against HDAC1 compared with MS-275: superior to that of MS-275
[9]
  IC50: 437 nM
  inhibition at 10 µM: 45%
  inhibition at 100 µM: 75%
[10]
  inhibition at 10 µM: 28.5%
  inhibition at 100 µM: 76.3%

## Nc1ccc(F)cc1NC(=O)c1ccc(CNc2ncnc3ccccc23)cc1 [Compound V-29, N-(2-amino-5-fluorophenyl)-4-[(quinazoline-4-amino)methyl]benzamide]
HDACs; 40 μM
  Inhibition percentage (%) towards HDACs: 8.6%
HDACs; 200 μM
  Inhibition percentage (%) towards HDACs: 31.0%
HDACs; 2 mM
  Inhibition percentage (%) towards HDACs: 37.8%
[1]
  maximum tolerance dose: over 5000 mg/kg
[2]
  inhibition at 10 µM: 79.4%
  inhibition at 100 µM: 94%
[3]
  inhibition at 10 µM: 88%
  inhibition at 100 µM: 94.5%
[4]
  inhibition at 10 µM: 0.9%
  inhibition at 100 µM: 18.4%
[5]
  inhibition at 10 µM: 51.5%
  inhibition at 100 µM: 96.2%
[6]
  inhibition at 10 µM: -7.2%
  inhibition at 100 µM: 35.5%
[7]
  inhibition at 10 µM: 22.5%
  inhibition at 100 µM: 60.5%
[8]
  inhibition at 10 µM: 6.3%
  inhibition at 100 µM: 69.8%
HDAC1
  IC50: 517 nM
  inhibition at 1 µM: 41.4%
  inhibition at 10 µM: 63.2%
[9]
  inhibition at 10 µM: 57.4%
  inhibition at 100 µM: 83.8%
[10]
  inhibition at 10 µM: 10.1%
  inhibition at 100 µM: 78.5%
